Test results as given in patent EP0348490B1, “TREATMENT OF TYPE 2 DIABETES MELLITUS” (AMYLIN PHARMACEUTICALS, INC., priority 1988, dated 1995).
Where no end group is shown, it is not given here.

Tests used:
[1] = tested on: isolated islets of Langerhans; assay: Glucose-stimulated insulin production by isolated islets of Langerhans; assay type: cell-based, rats
Description: The following experiments illustrate the fact that subpeptides of amylin can act to reduce the amount of insulin produced by isolated islets of Langerhans in response to a standard glucose challenge. […] All experiments were performed by known methods used in experimental practice. See, e.g., Lacey PE, and Kostianovsky M, Method for the isolation of intact islets of Langerhans from the rat pancreas. Diabetes 1967; 16:35-39.
Briefly, rats were killed, and islets of Langerhans were isolated from their pancreases. Experiments were performed either with freshly isolated islets or after overnight incubation of islets (23 h) in standard culture medium and conditions at 37°C. […]
Production of insulin is expressed as µU/islet/h. […] The integrity of the islet response was assessed by comparing the responses after stimulation of different aliquots of islets by two and ten mmol/L glucose, respectively, and the strength of the inhibitory response was judged against that induced by 1 µg/ml (650 nmol/L) somatostatin. […]
The results are shown in TABLE 5 below and all results are expressed as ± standard error of the mean (s.e.m.). The significance of differences between the means of groups is assessed by the t-test. […] In all other experimental conditions, the significance of the inhibitory effect is measured against the effect of 10 mmol/L glucose alone.

[2] = tested on: soleus muscles strips; details: synthetic subpeptides; data not shown

Substance: CGRP 27-37: subpeptide 27-37 of calcitonin gene related peptide, believed to affect the amylin receptor as an agonist (FVPTNVGSKAF; ends and bridges not checked; UniProt P06881 109-119, looked up, fragment)
- inhibition of insulin secretion compared with that seen with amylin 27-37 ([1]; 10 mmol/L glucose, somatostatin 1 ug/mL (650 nmol/L), varying concentrations of CGRP 27-37): no significant difference
- trend of inhibition relative to that caused by amylin 27-37 ([1]; never reached significance): slightly greater

Substance: Amylin 8-37 (ATQRLANFLVHSSNNFGAILSSTNVGSNTY; Islet amyloid polypeptide; UniProt P10997 41-70, looked up, fragment) [[5]]
- activity in inhibiting glycogen synthesis (reducing incorporation of radioactive glucose into glycogen) [2]: significant activity was present
